Where a name gives a salt, the structure may show the parent alone.
How the values were obtained:
[1] = target: T1, DHFR (Candida albicans, UniProt P22906); assay: biochemical; details: C.albicans enzyme; read-out: DHFR I50 C.albicans
T1 sequence (P22906 1-192): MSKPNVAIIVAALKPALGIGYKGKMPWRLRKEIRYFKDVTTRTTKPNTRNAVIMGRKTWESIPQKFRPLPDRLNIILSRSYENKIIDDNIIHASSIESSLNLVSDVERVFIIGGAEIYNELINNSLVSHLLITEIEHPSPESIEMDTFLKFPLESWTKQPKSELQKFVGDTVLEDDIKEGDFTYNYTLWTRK

[2] = target: T2, human dihydrofolate reductase (Homo sapiens, UniProt P00374); assay: DHFR I50, human enzyme; format: biochemical
T2 sequence (P00374 1-187): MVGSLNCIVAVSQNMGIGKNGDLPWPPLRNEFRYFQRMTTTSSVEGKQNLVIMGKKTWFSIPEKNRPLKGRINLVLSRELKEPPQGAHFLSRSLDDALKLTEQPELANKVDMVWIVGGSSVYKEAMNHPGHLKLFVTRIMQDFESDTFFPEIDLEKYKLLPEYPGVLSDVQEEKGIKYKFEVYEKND

[3] = system: S180 sarcoma; assay: Cytotoxicity in cell culture (inhibition of cell growth); format: cell-based; details: S-180, mouse line, continuous exposure 72 hours
Description: (§1) The cytotoxic effects of various compounds were measured by the inhibition of mammalian cell growth in culture. Cell lines were grown in RPMI-1640 media prepared without folic acid but supplemented with 10nM calcium leucovorin, 25mM HEPES and 10% dialysed fetal bovine serum. In the case of human medulloblastoma cells (Daoy), the media (containing undialysed 10% fetal bovine serum) was pretreated with the enzyme thymidine phosphorylase (20 units/ml for 30 mins. at 37°C) to remove endogenous thymidine. Cells were seeded into 96 well microtiter plates (at densities determined to give log phase growth of control cells at the end of the assay) in 150µl of medium and grown at 37°C in a humidified incubator at 6% CO₂ for 24 hours. Compounds were prepared in media at four times the highest concentration to be tested; two-fold serial dilutions were made, and compounds were added to cells. […] The EC₅₀, defined as the concentration of compound required to reduce growth to 50% of the control, was determined from a plot of per cent inhibition versus log concentration. Cells were continuously exposed to inhibitor for 72 hours.

[4] = system: Daoy medulloblastoma; assay: as above; format: cell-based; details: human line, continuous exposure 72 hours, medium pretreated with thymidine phosphorylase
Description: as §1

[5] = system: GC3C1 colon carcinoma; assay: as above; format: cell-based; details: GC3/C1, human line, continuous exposure 72 hours
Description: as §1

[6] = system: HCT8 colon adenocarcinoma; assay: as above; format: cell-based; details: HCT-8, human line, continuous exposure 72 hours
Description: as §1

[7] = system: KB3-1 epidermoid carcinoma; assay: as above; format: cell-based; details: KB 3-1, human line, continuous exposure 72 hours
Description: as §1

[8] = system: Ehrlich ascites carcinoma; assay: as above; format: cell-based; details: mouse line, continuous exposure 72 hours
Description: as §1

[9] = system: P388 lymphoid neoplasm; assay: as above; format: cell-based; details: mouse line, continuous exposure 72 hours
Description: as §1

[10] = system: MCF7 breast adenocarcinoma; assay: as above; format: cell-based; details: human line, continuous exposure 72 hours
Description: as §1

[11] = system: L cells (derived from connective tissue); assay: as above; format: cell-based; details: mouse line, continuous exposure 72 hours
Description: as §1

[12] = system: D98 bone marrow cells; assay: as above; format: cell-based; details: human line, continuous exposure 72 hours
Description: as §1

[13] = system: CCRF-CEM T cells; assay: as above; format: cell-based; details: human line, continuous exposure 72 hours
Description: as §1

[14] = Brain distribution in mice (brain and plasma concentrations by HPLC); format: in vivo; details: female CD1 mice, 30 or 40 minutes after dose; Compound 1 17mg/kg i.v., Compound 2 10mg/kg i.v., piritrexim 200mg/kg i.p., trimetrexate 100mg/kg i.p.; average of several experiments
Description: Female CD1 mice were dosed with Compound 1 (17mg/kg, i.v.), Compound 2 (10mg/kg, i.v.), piritrexim (200mg/kg,i.p.) or trimetrexate (100mg/kg, i.p.). Brain and plasma samples were collected 30 or 40 minutes later. The drugs were extracted from the samples, and their concentrations were determined using HPLC. The numbers represent the average of several experiments.

SMILES	IC50 [1]	IC50 [2]	also measured
CCCC(CC)n1ccc2c3c(N)nc(N)nc3ccc21 (stereo not drawn) [Compound 3, 1,3-Diamino-7-(1-ethylbutyl)-7H-pyrrolo[3,2-f]quinazoline]	2 nM	< 1 nM	
CCCC(CCC)n1ccc2c3c(N)nc(N)nc3ccc21 [Compound 4, 1,3-Diamino-7-(1-propylbutyl)-7H-pyrrolo[3,2-f]quinazoline hydrochloride]	< 1 nM	< 2 nM	
CCc1cc2c3c(N)nc(N)nc3ccc2n1C(CC)CC [Compound 6, 1,3-Diamino-8-ethyl-7-(1-ethylpropyl)-7H-pyrrolo(3,2-f)quinazoline]	< 1 nM	< 1 nM	
CCC(C)n1ccc2c3c(N)nc(N)nc3ccc21 (stereo not drawn) [Compound 7a, 1,3-diamino-7-sec-butyl-7H-pyrrolo(3,2-f)quinazoline]	10 nM	18 nM	
CCCC(C)n1ccc2c3c(N)nc(N)nc3ccc21 (stereo not drawn) [Compound 7b, 1,3-diamino-7-(1-methylbutyl)-7H-pyrrolo(3,2-f)quinazoline]	7 nM	11 nM	
CCC(C(C)C)n1ccc2c3c(N)nc(N)nc3ccc21 (stereo not drawn) [Compound 7c, 1,3-diamino-7-(1-ethyl-2-methylpropyl)-7H-pyrrolo(3,2-f)quinazoline]	3 nM	< 2 nM	
CC(C)n1ccc2c3c(N)nc(N)nc3ccc21 [Compound 7d, 1,3-diamino-7-isopropyl-7H-pyrrolo(3,2-f)quinazoline]	35 nM	48 nM	
COCC(COC)n1ccc2c3c(N)nc(N)nc3ccc21 [Compound 7e, 1,3-diamino-7-(2-methoxy-1-methoxymethyl)ethyl-7H-pyrrolo(3,2-f)quinazoline]	8.9 nM	8.4 nM	
Nc1nc(N)c2c(ccc3c2ccn3C2CCCCC2)n1 [Compound 7f, 1,3-diamino-7-cyclohexyl-7H-pyrrolo(3,2-f)quinazoline]	3 nM	44 nM	
Nc1nc(N)c2c(ccc3c2ccn3C2C=CCCC2)n1 (stereo not drawn) [Compound 7g, 1,3-diamino-7-(2-cyclohexen-1-yl)-7H-pyrrolo(3,2-f)quinazoline]	6 nM	33 nM	
Cc1cc2c3c(N)nc(N)nc3ccc2n1C(C)C [Compound 8a, 1,3-diamino-7-isopropyl-8-methyl-7H-pyrrolo(3,2-f)quinazoline]	4 nM	9 nM	
CCC(CC)n1c(COC)cc2c3c(N)nc(N)nc3ccc21 [Compound 9a, 1,3-diamino-7-(1-ethylpropyl)-8-(methoxymethyl)-7H-pyrrolo (3,2-f)quinazoline]	4.1 nM	3.3 nM	
CCCc1cc2c3c(N)nc(N)nc3ccc2n1C(CC)CC [Compound 9b, 1,3-diamino-7-(1-ethylpropyl)-8-propyl-7H-pyrrolo(3,2-f)quinazoline]	1.8 nM	1.3 nM	
CC(C)n1c(C(C)(C)C)cc2c3c(N)nc(N)nc3ccc21 [Compound 9c, 1,3-diamino-8-tert-butyl-7-isopropyl-7H-pyrrolo(3,2-f)quinazoline]	< 1 nM	< 1 nM	
CCC(CC)n1c(C(C)C)cc2c3c(N)nc(N)nc3ccc21 [Compound 9d, 1,3-diamino-7-(1-ethylpropyl)-8-isopropyl-7H-pyrrolo(3,2-f)quinazoline]	< 1 nM	< 1 nM	
CCc1cc2c3c(N)nc(N)nc3ccc2n1C(C)CC (stereo not drawn) [Compound 9e, 1,3-diamino-8-ethyl-7-sec-butyl-7H-pyrrolo(3,2-f)quinazoline]	< 1 nM	< 1 nM	
CCC(CC)n1c(CCCCl)cc2c3c(N)nc(N)nc3ccc21 [Compound 9f, 1,3-diamino-8-(3-chloropropyl)-7-(1-ethylpropyl)-7H-pyrrolo(3,2-f)quinazoline]	4.3 nM	< 1 nM	
CCCCc1cc2c3c(N)nc(N)nc3ccc2n1C(C)(C)C [Compound 10a, 1,3-diamino-8-butyl-7-tert-butyl-7H-pyrrolo(3,2-f)quinazoline]	7 nM		
CCC(C)(C)n1c(C)cc2c3c(N)nc(N)nc3ccc21 [Compound 10b, 1,3-diamino-7-(1,1-dimethylpropyl)-8-methyl-7H-pyrrolo(3,2-f)quinazoline]	< 1 nM	< 1 nM	
CN(Cc1cnc2nc(N)nc(N)c2n1)c1ccc(C(=O)N[C@@H](CCC(=O)O)C(=O)O)cc1 [Methotrexate, N-[4[[(2,4-diamino-6-pteridinyl)methyl]methylamino]benzoyl]-L-glutamic acid, reference compound]			EC50 [3]: 18.7 nM; EC50 [4]: 21 nM; EC50 [5]: 12 nM; EC50 [6]: 7.3 nM; EC50 [7]: 20 nM; EC50 [8]: 8.5 nM; EC50 [9]: 2.7 nM; EC50 [10]: 12 nM; EC50 [11]: 75 nM; EC50 [12]: 47 nM; EC50 [13]: 1.9 nM
COc1ccc(OC)c(Cc2cnc3nc(N)nc(N)c3c2C)c1 [Piritrexim, 2,4-diamino-6(2,5-dimethoxybenzyl)5-methylpyrido(2,3-d)pyrimidine, reference compound]			Tissue concentration brain [14]: 2.3 µg/g; Tissue concentration plasma [14]: 4.2 µg/mL; EC50 [3]: 10 nM; EC50 [4]: 48 nM; EC50 [5]: 7.6 nM; EC50 [6]: 1.3 nM; EC50 [7]: 340 nM; EC50 [8]: 4 nM; EC50 [9]: 23 nM; EC50 [10]: 175 nM; EC50 [11]: 5.2 nM; EC50 [12]: 195 nM; EC50 [13]: 15 nM
COc1cc(NCc2ccc3nc(N)nc(N)c3c2C)cc(OC)c1OC [Trimetrexate, 5-methyl-6-[[(3,4,5-trimethoxyphenyl)amino]methyl]-2,4-quinazolinediamine, reference compound]			Tissue concentration brain [14]: 1.4 µg/g; Tissue concentration plasma [14]: 13 µg/mL
